#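 Grown in 96-well plates, cells were treated for 48 hours with each compound at five concentrations. Insufficient inhibition: endpoint recorded as highest concentration tested. Definition used: TGI = concentration required for complete inhibition of growth.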
# How the values were obtained:
# Assay in all cases: DTP human tumour cell line panel, 48 h
# SW-620 colon = system: SW-620 colon
# COLO 205 colon = system: COLO 205 colon
# MALME-3M melanoma = system: MALME-3M melanoma
# HCT-116 colon = system: HCT-116 colon
# CAKI-1 renal = system: CAKI-1 renal
# HCT-15 colon = system: HCT-15 colon
# MOLT-4 leukemia = system: MOLT-4 leukemia
# IGROV1 ovarian = system: IGROV1 ovarian
# NCI-H460 lung = system: NCI-H460 lung
# OVCAR-5 ovarian = system: OVCAR-5 ovarian
# TK-10 renal = system: TK-10 renal
# SR leukemia = system: SR leukemia
# LOX IMVI melanoma = system: LOX IMVI melanoma
# MDA-N = system: MDA-N
# OVCAR-8 ovarian = system: OVCAR-8 ovarian
# MCF7 breast = system: MCF7 breast
# HOP-62 NSCLC = system: HOP-62 NSCLC
# SN12C renal = system: SN12C renal
# RPMI-8226 leukemia = system: RPMI-8226 leukemia
# HL-60(TB) leukemia = system: HL-60(TB) leukemia
# A498 renal = system: A498 renal
# SF-539 CNS = system: SF-539 CNS
# KM12 colon = system: KM12 colon
# MDA-MB-435 = system: MDA-MB-435
# UACC-257 melanoma = system: UACC-257 melanoma
# SK-OV-3 ovarian = system: SK-OV-3 ovarian
# HT29 colon = system: HT29 colon
# NCI-H226 lung = system: NCI-H226 lung
# SK-MEL-28 melanoma = system: SK-MEL-28 melanoma
# NCI/ADR-RES ovarian = system: NCI/ADR-RES ovarian
# SF-295 CNS = system: SF-295 CNS
# RXF 393 renal = system: RXF 393 renal
# 786-0 renal = system: 786-0 renal
# SNB-75 CNS = system: SNB-75 CNS
# UACC-62 melanoma = system: UACC-62 melanoma
# NCI-H522 lung = system: NCI-H522 lung
# DU-145 prostate = system: DU-145 prostate
# ACHN renal = system: ACHN renal
# SK-MEL-2 melanoma = system: SK-MEL-2 melanoma
# A549 NSCLC = system: A549 NSCLC
# EKVX NSCLC = system: EKVX NSCLC
# SNB-19 CNS = system: SNB-19 CNS
# UO-31 renal = system: UO-31 renal
# HOP-92 NSCLC = system: HOP-92 NSCLC
# NCI-H23 lung = system: NCI-H23 lung
# SF-268 CNS = system: SF-268 CNS
# PC-3 prostate = system: PC-3 prostate
# T-47D breast = system: T-47D breast
# MDA-MB-231 breast = system: MDA-MB-231 breast
# M14 melanoma = system: M14 melanoma
# CCRF-CEM leukemia = system: CCRF-CEM leukemia
# BT-549 breast = system: BT-549 breast
# HCC-2998 colon = system: HCC-2998 colon
# OVCAR-4 ovarian = system: OVCAR-4 ovarian
# U251 CNS = system: U251 CNS
# OVCAR-3 ovarian = system: OVCAR-3 ovarian
# K-562 leukemia = system: K-562 leukemia
# HS 578T breast = system: HS 578T breast
# SK-MEL-5 melanoma = system: SK-MEL-5 melanoma
smiles,measurement,setting,value
C=C1c2nc3ccccc3n2C=C(c2ccc(OC)cc2)N1c1ccc(OCCN2CCOCC2)cc1,TGI,SW-620 colon,> 100 µM
same,TGI,COLO 205 colon,> 57 µM
same,TGI,MALME-3M melanoma,27.6 µM
same,TGI,HCT-116 colon,> 100 µM
same,TGI,CAKI-1 renal,> 100 µM
same,TGI,HCT-15 colon,> 100 µM
same,TGI,MOLT-4 leukemia,> 100 µM
same,TGI,IGROV1 ovarian,> 100 µM
same,TGI,NCI-H460 lung,> 49.9 µM
same,TGI,OVCAR-5 ovarian,> 100 µM
same,TGI,TK-10 renal,> 100 µM
same,TGI,SR leukemia,> 55.2 µM
same,TGI,LOX IMVI melanoma,> 100 µM
same,TGI,MDA-N,> 100 µM
same,TGI,OVCAR-8 ovarian,> 100 µM
same,TGI,MCF7 breast,> 100 µM
same,TGI,HOP-62 NSCLC,> 100 µM
same,TGI,SN12C renal,> 100 µM
same,TGI,RPMI-8226 leukemia,9.05 µM
same,TGI,HL-60(TB) leukemia,> 34.8 µM
same,TGI,A498 renal,> 100 µM
same,TGI,SF-539 CNS,> 100 µM
same,TGI,KM12 colon,> 100 µM
same,TGI,MDA-MB-435,> 100 µM
same,TGI,UACC-257 melanoma,17.6 µM
same,TGI,SK-OV-3 ovarian,> 100 µM
same,TGI,HT29 colon,> 100 µM
same,TGI,NCI-H226 lung,> 100 µM
same,TGI,SK-MEL-28 melanoma,> 100 µM
same,TGI,NCI/ADR-RES ovarian,> 100 µM
same,TGI,SF-295 CNS,> 100 µM
same,TGI,RXF 393 renal,> 100 µM
same,TGI,786-0 renal,> 100 µM
same,TGI,SNB-75 CNS,> 100 µM
same,TGI,UACC-62 melanoma,> 100 µM
same,TGI,NCI-H522 lung,3.63 µM
same,TGI,DU-145 prostate,> 100 µM
same,TGI,ACHN renal,> 100 µM
same,TGI,SK-MEL-2 melanoma,> 52.2 µM
same,TGI,A549 NSCLC,> 100 µM
same,TGI,EKVX NSCLC,> 100 µM
same,TGI,SNB-19 CNS,> 100 µM
same,TGI,UO-31 renal,> 100 µM
same,TGI,HOP-92 NSCLC,> 100 µM
same,TGI,NCI-H23 lung,> 100 µM
same,TGI,SF-268 CNS,> 31.9 µM
same,TGI,PC-3 prostate,> 100 µM
same,TGI,T-47D breast,> 100 µM
same,TGI,MDA-MB-231 breast,> 100 µM
same,TGI,M14 melanoma,> 55.4 µM
same,TGI,CCRF-CEM leukemia,> 86.9 µM
same,TGI,BT-549 breast,> 100 µM
same,TGI,HCC-2998 colon,> 100 µM
same,TGI,OVCAR-4 ovarian,> 100 µM
same,TGI,U251 CNS,> 100 µM
same,TGI,OVCAR-3 ovarian,> 100 µM
same,TGI,K-562 leukemia,> 100 µM
same,TGI,HS 578T breast,> 40 µM
same,TGI,SK-MEL-5 melanoma,> 100 µM
COc1cc(C=O)cc(C=Nc2ccc(S(N)(=O)=O)cc2)c1O,TGI,SW-620 colon,> 100 µM
same,TGI,COLO 205 colon,76.9 µM
same,TGI,MALME-3M melanoma,7.78 µM
same,TGI,HCT-116 colon,94.7 µM
same,TGI,CAKI-1 renal,49.3 µM
same,TGI,HCT-15 colon,> 100 µM
same,TGI,MOLT-4 leukemia,64.2 µM
same,TGI,IGROV1 ovarian,> 100 µM
same,TGI,NCI-H460 lung,74.6 µM
same,TGI,OVCAR-5 ovarian,> 100 µM
same,TGI,TK-10 renal,> 100 µM
same,TGI,SR leukemia,42.1 µM
same,TGI,LOX IMVI melanoma,42.7 µM
same,TGI,MDA-N,28.1 µM
same,TGI,OVCAR-8 ovarian,> 100 µM
same,TGI,MCF7 breast,> 100 µM
same,TGI,HOP-62 NSCLC,48.5 µM
same,TGI,SN12C renal,35.5 µM
same,TGI,RPMI-8226 leukemia,33.3 µM
same,TGI,HL-60(TB) leukemia,75.1 µM
same,TGI,A498 renal,48.2 µM
same,TGI,SF-539 CNS,7.94 µM
same,TGI,KM12 colon,> 100 µM
same,TGI,MDA-MB-435,49 µM
same,TGI,UACC-257 melanoma,38.5 µM
same,TGI,SK-OV-3 ovarian,7.93 µM
same,TGI,HT29 colon,> 100 µM
same,TGI,NCI-H226 lung,9.58 µM
same,TGI,SK-MEL-28 melanoma,99 µM
same,TGI,NCI/ADR-RES ovarian,> 100 µM
same,TGI,SF-295 CNS,23.2 µM
same,TGI,RXF 393 renal,14.5 µM
same,TGI,SNB-75 CNS,> 100 µM
same,TGI,UACC-62 melanoma,> 100 µM
same,TGI,NCI-H522 lung,44.5 µM
same,TGI,DU-145 prostate,> 100 µM
same,TGI,ACHN renal,35.2 µM
same,TGI,SK-MEL-2 melanoma,20.8 µM
same,TGI,A549 NSCLC,> 100 µM
same,TGI,EKVX NSCLC,> 100 µM
same,TGI,SNB-19 CNS,> 100 µM
same,TGI,UO-31 renal,> 100 µM
same,TGI,HOP-92 NSCLC,21.7 µM
same,TGI,NCI-H23 lung,> 100 µM
same,TGI,SF-268 CNS,39.2 µM
same,TGI,PC-3 prostate,21.3 µM
same,TGI,T-47D breast,> 100 µM
same,TGI,MDA-MB-231 breast,76.4 µM
same,TGI,M14 melanoma,14.6 µM
same,TGI,CCRF-CEM leukemia,33.8 µM
same,TGI,BT-549 breast,> 100 µM
same,TGI,HCC-2998 colon,42.7 µM
same,TGI,OVCAR-4 ovarian,> 100 µM
same,TGI,U251 CNS,> 100 µM
same,TGI,OVCAR-3 ovarian,> 100 µM
same,TGI,K-562 leukemia,> 100 µM
same,TGI,HS 578T breast,6.16 µM
same,TGI,SK-MEL-5 melanoma,23 µM

# Reference: PubChem BioAssay (NCI)
